According to patent US20090197856A1, “ANTIVIRAL COMPOUNDS” (Genelabs Technologies, Inc., priority 2007, published 2009):

Biological target: T1, NS5B (Hepatitis C virus genotype 1b, UniProt Q9WMX2)
T1 construct: 3 nM NS5B, 20 nM polyC RNA template
Assay: Polymerase assay, incorporation of radiolabeled GTP with biotinylated oligoG13 primer and polycytidylic acid RNA template
Format: biochemical
Details: polyC RNA template, biotin-oligoG13 primer, tritiated GTP, 3 nM NS5B, 30° C., 2 hours
Experimental: The polymerase activity was also assayed by measuring incorporation of radiolabeled GTP into an RNA product using a biotinylated oligoG13 primer with a polycytidylic acid RNA template. Typically, the assay mixture (40 μL) contains 50 mM HEPES (pH 7.3), 2.5 mM magnesium acetate, 2 mM sodium chloride, 37.5 mM potassium acetate, 5 mM DTT, 0.4 U/mL RNasin, 2.5% glycerol, 3 nM NS5B, 20 nM polyC RNA template, 20 nM biotin-oligoG13 primer, and 0.2 μM tritiated guanosine triphosphate. Test compounds were initially dissolved and diluted in 100% DMSO and further diluted into aqueous buffer, producing a final concentration of 5% DMSO. Typically, compounds were tested at concentrations between 0.2 nM and 10 μM. Reactions were started with addition of tritiated guanosine triphosphate and allowed to continue at 30° C. for 2 hours. Reactions were quenched with 100 μL stop buffer containing 10 mM EDTA and 1 μg/mL streptavidin-coated scintillation proximity beads. Reaction plates were incubated at 4° C. for 10 hours and then incorporation of radioactivity was determined by scintillation counting. The table below lists the IC50 values of compounds determined using this procedure.

T1 sequence (Q9WMX2 2420-3010): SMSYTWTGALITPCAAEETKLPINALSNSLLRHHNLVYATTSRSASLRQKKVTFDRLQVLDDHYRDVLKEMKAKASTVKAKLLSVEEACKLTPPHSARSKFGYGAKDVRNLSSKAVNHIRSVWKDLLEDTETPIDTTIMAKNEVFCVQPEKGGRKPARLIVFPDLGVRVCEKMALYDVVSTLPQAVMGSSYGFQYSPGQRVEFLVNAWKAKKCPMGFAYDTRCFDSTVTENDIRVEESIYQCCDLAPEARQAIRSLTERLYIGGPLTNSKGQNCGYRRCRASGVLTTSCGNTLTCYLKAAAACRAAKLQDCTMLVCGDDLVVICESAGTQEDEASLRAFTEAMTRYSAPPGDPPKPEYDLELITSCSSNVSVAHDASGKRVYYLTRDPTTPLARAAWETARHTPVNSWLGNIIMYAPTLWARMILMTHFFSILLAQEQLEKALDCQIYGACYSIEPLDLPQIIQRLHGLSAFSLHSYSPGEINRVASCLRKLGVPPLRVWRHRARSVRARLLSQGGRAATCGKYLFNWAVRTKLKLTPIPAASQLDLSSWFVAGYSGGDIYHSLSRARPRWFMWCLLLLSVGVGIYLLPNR

CC1(C)CN2CCn3c(c(C4CCCCC4)c4ccc(C(=O)O)cc43)-c3cccc(c32)[C@H]1N [Compound 499]
IC50: 4 nM

CC1(C)CN2CCn3c(c(C4CCCCC4)c4ccc(C(=O)O)cc43)-c3cccc(c32)[C@@H]1N [Compound 497, (4R)-4-amino-15-cyclohexyl-5,5-dimethyl-5,6,8,9-tetrahydro-4H-indolo[1′,2′:4,5][1,4]diazepino[6,7,1-ij]quinoline-12-carboxylic Acid]
IC50: 23 nM

CCN(CC)C1CCN2CCn3c(c(C4CCCCC4)c4ccc(C(=O)O)cc43)-c3cccc1c32 (centres unmarked) [Compound 286]
IC50: 4.33 nM

CN(C)C(=O)c1c(CNS(=O)(=O)C2CC2)c2cccc3c2n1CCCn1c-3c(C2CCCCC2)c2ccc(C(=O)O)cc21 [Compound 310]
IC50: 6 nM

CCN(C)Cc1c(C(=O)N2CCN(S(C)(=O)=O)CC2)n2c3c(cccc13)-c1c(C3CCCCC3)c3ccc(C(=O)O)cc3n1CCC2 [Compound 318]
IC50: 9 nM

CCN(C)Cc1c(C(=O)N2CC[C@@H](NC(C)=O)C2)n2c3c(cccc13)-c1c(C3CCCCC3)c3ccc(C(=O)O)cc3n1CCC2 [Compound 326]
IC50: 6 nM

CCC1(CC)C(=O)N2CCCn3c(c(C4CCCCC4)c4ccc(C(=O)O)cc43)-c3ccc(F)c1c32 [Compound 267, 12-cyclohexyl-1,1-diethyl-15-fluoro-2-oxo-1,2,5,6-tetrahydro-4H-[1,5]diazocino[1,2-a:5,4,3-h′i′]diindole-9-carboxylic acid]
IC50: 10 nM

CCN(C)Cc1c(C(=O)N(C)Cc2ccccc2)n2c3c(cccc13)-c1c(C3CCCCC3)c3ccc(C(=O)O)cc3n1CCC2 [Compound 323]
IC50: 9 nM

NCC[C@H]1CCN2CCn3c(c(C4CCCCC4)c4ccc(C(=O)O)cc43)-c3cccc1c32 [Compound 303]
IC50: 6.81 nM

CC(C)(C)OC(=O)N[C@H]1CCN2CCn3c(c(C4CCCCC4)c4ccc(C(=O)O)cc43)-c3cccc1c32 [Compound 295, (4S)-4-[(tert-butoxycarbonyl)amino]-15-cyclohexyl-5,6,8,9-tetrahydro-4H-indolo[1′,2′:4,5][1,4]diazepino[6,7,1-ij]quinoline-12-carboxylic acid]
IC50: 8.47 nM

CC(C)N1CCCC[C@H]1C(=O)N(C)Cc1c(C(=O)N(C)C)n2c3c(cccc13)-c1c(C3CCCCC3)c3ccc(C(=O)O)cc3n1CCC2 [Compound 313]
IC50: 2 nM

NCCNC1CCN2CCn3c(c(C4CCCCC4)c4ccc(C(=O)O)cc43)-c3cccc1c32 (centres unmarked) [Compound 284]
IC50: 6.22 nM

CC1(C)C(=O)N2CCn3c(c(C4CCCCC4)c4ccc(C(=O)O)cc43)-c3cccc(c32)[C@@H]1N [Compound 496, (4S)-4-amino-15-cyclohexyl-5,5-dimethyl-6-oxo-5,6,8,9-tetrahydro-4H-indolo[1′,2′:4,5][1,4]diazepino[6,7,1-ij]quinoline-12-carboxylic Acid]
IC50: 200 nM

O=C(O)c1ccc2c(C3CCCCC3)c3n(c2c1)CCN1CCC(N2CCCCC2)c2cccc-3c21 (centres unmarked) [Compound 288]
IC50: 1.8 nM

CCN(C)Cc1c(C(=O)N2CCCC2)n2c3c(cccc13)-c1c(C3CCCCC3)c3ccc(C(=O)O)cc3n1CCC2 [Compound 320]
IC50: 3 nM

N[C@H]1CCN2CCn3c(c(C4CCCCC4)c4ccc(C(=O)O)cc43)-c3cccc1c32 [Compound 275]
IC50: 10.1 nM

CC1(C)C(=O)N2CCn3c(c(C4CCCCC4)c4ccc(C(=O)O)cc43)-c3cccc(c32)[C@H]1N [Compound 498]
IC50: 20 nM

NC1CCN2CCn3c(c(C4CCCCC4)c4ccc(C(=O)O)cc43)-c3cccc1c32 (centres unmarked) [Compound 273, 4-Amino-15-cyclohexyl-5,6,8,9-tetrahydro-4H-indolo[1′,2′:4,5][1,4]diazepino[6,7,1-ij]quinoline-12-carboxylic acid]
IC50: 4.39 nM

CN(C)C(=O)c1c(CNC2CCOCC2)c2cccc3c2n1CCCn1c-3c(C2CCCCC2)c2ccc(C(=O)O)cc21 [Compound 308]
IC50: 7 nM

CN1CCC2(C1)C(=O)N1CCCn3c(c(C4CCCCC4)c4ccc(C(=O)O)cc43)-c3cccc2c31 (centres unmarked) [Compound 272, 12-cyclohexyl-1′-methyl-2-oxo-5,6-dihydro-4H-spiro[1,5-diazocino[1,2-a:5,4,3-h′i′]diindole-1,3′-pyrrolidine]-9-carboxylic acid]
IC50: 30 nM

N[C@@H]1CCN2CCn3c(c(C4CCCCC4)c4ccc(C(=O)O)cc43)-c3cccc1c32 [Compound 274, (4R)-4-amino-15-cyclohexyl-5,6,8,9-tetrahydro-4H-indolo[1′,2′:4,5][1,4]diazepino[6,7,1-ij]quinoline-12-carboxylic acid]
IC50: 2.45 nM

CCN(CC)Cc1c(C(=O)N(C)C)n2c3c(cccc13)-c1c(C3CCCCC3)c3ccc(C(=O)O)cc3n1CCC2 [Compound 306]
IC50: 8 nM

CCN(C)Cc1c(C(=O)NS(=O)(=O)C2CC2)n2c3c(cccc13)-c1c(C3CCCCC3)c3ccc(C(=O)O)cc3n1CCC2 [Compound 322]
IC50: 9 nM

CCN(C)Cc1c(C(=O)N(C)C)n2c3c(cccc13)-c1c(C3CCCCC3)c3ccc(C(=O)O)cc3n1CC2 [Compound 312]
IC50: 4 nM

NCCC1CCN2CCn3c(c(C4CCCCC4)c4ccc(C(=O)O)cc43)-c3cccc1c32 (centres unmarked) [Compound 301, 4-(2-aminoethyl)-15-cyclohexyl-5,6,8,9-tetrahydro-4H-indolo[1′,2′:4,5][1,4]diazepino[6,7,1-ij]quinoline-12-carboxylic acid]
IC50: 3.35 nM

NC1CCN2CCn3c(c(C4CCCCC4)c4ccc(C(=O)O)cc43)-c3ccc(F)c1c32 (centres unmarked) [Compound 448]
IC50: 5.05 nM

CC(C)(C)OC(=O)N[C@@H]1CCN2CCn3c(c(C4CCCCC4)c4ccc(C(=O)O)cc43)-c3cccc1c32 [Compound 294]
IC50: 1.55 nM

CC1(C)CN2CCCn3c(c(C4CCCCC4)c4ccc(C(=O)O)cc43)-c3cccc1c32 [Compound 271, 12-cyclohexyl-1,1-dimethyl-1,2,5,6-tetrahydro-4H-[1,5]diazocino[1,2-a:5,4,3-h′i′]diindole-9-carboxylic acid]
IC50: 15 nM

CC(C)N1CCC[C@H]1C(=O)N[C@@H]1CCN2CCn3c(c(C4CCCCC4)c4ccc(C(=O)O)cc43)-c3cccc1c32 [Compound 300, (4R)-15-cyclohexyl-4-[(1-isopropyl-L-prolyl)amino]-5,6,8,9-tetrahydro-4H-indolo[1′,2′:4,5][1,4]diazepino[6,7,1-ij]quinoline-12-carboxylic acid]
IC50: 0.769 nM

CCN(C)Cc1c(C(=O)N2CCC(N(C)C)CC2)n2c3c(cccc13)-c1c(C3CCCCC3)c3ccc(C(=O)O)cc3n1CCC2 [Compound 324]
IC50: 6 nM

CC(=O)N[C@@H]1CCN2CCn3c(c(C4CCCCC4)c4ccc(C(=O)O)cc43)-c3cccc1c32 [Compound 293, (4R)-4-Acetamido-15-cyclohexyl-5,6,8,9-tetrahydro-4H-indolo[1′,2′:4,5][1,4]diazepino[6,7,1-ij]quinoline-12-carboxylic acid]
IC50: 1.71 nM

CCN(CC)[C@@H]1CCN2CCn3c(c(C4CCCCC4)c4ccc(C(=O)O)cc43)-c3cccc1c32 [Compound 290]
IC50: 1.62 nM

CN(C)C(=O)c1c(CN2CCCCC2)c2cccc3c2n1CCCn1c-3c(C2CCCCC2)c2ccc(C(=O)O)cc21 [Compound 307]
IC50: 4 nM

CN(C)S(=O)(=O)NC(=O)c1ccc2c(C3CCCCC3)c3n(c2c1)CCN1CC[C@@H](N)c2cccc-3c21 [Compound 299, (4R)-4-amino-15-cyclohexyl-N-[(dimethylamino)sulfonyl]-5,6,8,9-tetrahydro-4H-indolo[1′,2′:4,5][1,4]diazepino[6,7,1-ij]quinoline-12-carboxamide]
IC50: 1 nM

CN(C)C(=O)c1c(CN(C)C(=O)C(C)(C)N2CCCC2)c2cccc3c2n1CCCn1c-3c(C2CCCCC2)c2ccc(C(=O)O)cc21 [Compound 314]
IC50: 11 nM

CCN(C)Cc1c(C(=O)NC2CC2)n2c3c(cccc13)-c1c(C3CCCCC3)c3ccc(C(=O)O)cc3n1CCC2 [Compound 319]
IC50: 11 nM

O=C(NCCN1CCCC1)N[C@@H]1CCN2CCn3c(c(C4CCCCC4)c4ccc(C(=O)O)cc43)-c3cccc1c32 [Compound 297]
IC50: 1.67 nM

CCCN[C@@H]1CCN2CCn3c(c(C4CCCCC4)c4ccc(C(=O)O)cc43)-c3cccc1c32 [Compound 291]
IC50: 1.94 nM

CCN(C)Cc1c(C(=O)N(C)C)n2c3c(cccc13)-c1c(C3CCCCC3)c3ccc(C(=O)NS(=O)(=O)C4CC4)cc3n1CCC2 [Compound 316]
IC50: 5 nM

N[C@@H]1CCN2CCn3c(c(C4CCCCC4)c4ccc(C(=O)NC5CC5)cc43)-c3cccc1c32 [Compound 298, (4R)-4-amino-15-cyclohexyl-N-cyclopropyl-5,6,8,9-tetrahydro-4H-indolo[1′,2′:4,5][1,4]diazepino[6,7,1-ij]quinoline-12-carboxamide]
IC50: 7.17 nM

CC(C)(C)NC(=O)N[C@@H]1CCN2CCn3c(c(C4CCCCC4)c4ccc(C(=O)O)cc43)-c3cccc1c32 [Compound 296, (4R)-4-[(tert-Butylcarbamoyl)amino]-15-cyclohexyl-5,6,8,9-tetrahydro-4H-indolo[1′,2′:4,5][1,4]diazepino[6,7,1-ij]quinoline-12-carboxylic acid]
IC50: 1.01 nM

CCN(C)Cc1c(C(=O)N(CC)CC)n2c3c(cccc13)-c1c(C3CCCCC3)c3ccc(C(=O)O)cc3n1CCC2 [Compound 317]
IC50: 5 nM

CCN(C)Cc1c(C(=O)N(C)C)n2c3c(cccc13)-c1c(C3CCCCC3)c3ccc(C(=O)NS(=O)(=O)N(C)C)cc3n1CCC2 [Compound 315]
IC50: 2 nM

O=C(O)c1ccc2c(C3CCCCC3)c3n(c2c1)CCN1CCC(NC2CCCC2)c2cccc-3c21 (racemic) [Compound 280]
IC50: 2.18 nM
